# Assays:
# [1] = test system: PC12-HS cells; experiment: Evaluation B: neurite-outgrowth action in presence of NGF; format: cell-based, rat; details: for Percentage (%) of cells with neurite outgrowth: 50 μl/well of 2 μg/ml test solution + NGF final 5 ng/ml, 3 days
# [2] = test system: PC12-HS cells; experiment: Evaluation A: neurocyte (cell)-growth-promoting action, ALAMAR BLUE; format: cell-based, rat
# Procedure: Then, the effects of test samples were judged as follows:
# The relative value of 140 to 199: Equivalent effect to that of NK-4, symbol (∘); The relative value of 200 or higher: Stronger effect than that of NK-4, symbol ([…]). • The results are in Table 6.
# The relative fluorescent intensity of each well was determined by using the fluorescent intensity of each well with cells, which had been cultured by admixing with D-MEM medium containing 10% by volume of FBS without any of the compounds, and the intensity of the resulting culture was regarded as 100%. The results are expressed as cell survival percentages (%) in Table 9. […]
# The test was conducted twice for each test sample in a triplicate manner and the data were averaged.
# Seven compounds as in Table 17, NK-234, NK-26, NK-9815, NK-9694, NK-28 and NK-147 as well as NK-4, were each dissolved in DMSO to give a concentration of 5 mg/ml. […] The test was conducted twice for each test sample in a triplicate manner and the data were averaged.
# [3] = test system: brain ischemia rat; experiment: Brain ischemia (cerebral infarction model) rat: size/volume of cerebral infarction region (TTC); format: in vivo; details: for Volume of cerebral infarction region (mm^3): embolus rat, caudal vein
# [4] = test system: brain ischemia rat; experiment: Brain ischemia (cerebral infarction model) rat: behavioral score; format: in vivo; parameters: Behavioral score: scale not given here; details: for Behavioral score: embolus rat, caudal vein
# Procedure: Male SD rats, seven- to eight-weeks of age and 280 to 330 g body weight, commercialized by Charles River Laboratories Japan Inc., Kanagawa, Japan, were allocated randomly into seven groups, consisting of five to seven rats in each group. Among the seven groups, five groups were subjected to the following surgery as test groups: Rats in the test groups were subcutaneously administered with 0.3 mg/kg body weight of atropine, commercialized by Fuso Pharmaceutical industries, Osaka, Japan. Successively, each rat was anesthetized by administrating 600 mg/kg body weight of urethane, commercialized by Sigma-Aldrich Co., MO, USA, and 60 mg/kg-weight of […], commercialized by Sigma-Aldrich Co., MO, USA, into the peritoneal cavity, and fixed to a fixator under voluntary breathing conditions. The right carotid artery bifurcation was exposed by median incision of the neck without damaging vagus nerve. The common carotid artery and external carotid artery around the right carotid artery bifurcation were exfoliated from surrounding connective tissue and wired respectively using “NESCOSUTURE”, a 6-0 nylon string commercialized by Alfresa Pharma Corporation, Osaka, Japan. Then, the internal carotid artery was tied with the 6-0 nylon string for fixation after insertion of an obturator. Successively, the common carotid artery was incised and a silicon-coated obturator, prepared by a 4-0 nylon string, commercialized by Doccol Corp., CA, USA, was inserted from the common carotid artery into the internal carotid artery at a distance of about 16 mm, and clipped to the common carotid artery (see, for example, Koizumi et al., Cerebral stroke, Vol. 8, No. 1, pp. 1-8 (1986)). By the method, the silicon-coated tip of obturator was inserted through the right carotid artery bifurcation to frontal cerebral artery at a distance of about 2 mm and obstructs the inlet of the medial cerebral artery. After two hours occlusion of the medial cerebral artery while keeping the rat on an isothermal pad controlled at a temperature of 37° C., blood was allowed to reperfuse by withdrawing the obturator. Then, the internal carotid artery was tied near the carotid artery bifurcation for preventing the bleeding from the incised part of the common carotid artery. In the model, the blood was reperfused through the left carotid artery, vertebral artery, basilar artery, frontal and backward communication artery because the right carotid artery was clipped.
# NK-4, NK-19, NK-53, NK-100, and NK-557, used in the test, were respectively dissolved in DMSO (product No. “D8418”, commercialized by Sigma-Aldrich Co., MO, USA) to give a concentration of 5 mg/ml and filtrated using “MILLEX-LG SLLG025SS”, a DMSO-resistant membrane filter commercialized by Millipore, MA, USA. Stock […], and then 4 ml/kg body weight of any of the resulting diluted solutions was administered ([…]) to five test groups (test groups 1 to 5) consisting of five or seven rats, through their caudal veins at both after one hour from the occlusion of middle cerebral artery and immediately after initiating reperfusion. After 24 hours from the reperfusion of blood, behavioral and histological evaluations of rats were carried out according to the following procedures: As a control group 1, five rats in one group out of the remaining two groups were subjected to the same surgery as the rats in the test groups 1 to 5, and administered with 4 ml/kg body weight of PBS free of any of the compounds through their caudal veins at both after one hour of the medial cerebral artery occlusion and immediately after the start of reperfusion. As the control group 2, six rats in the remaining one group were subjected to a sham surgery, in which common, external, and internal carotid arteries were clipped and then reperfused their blood without inserting the obturator to each medial cerebral artery. […]
# [5] = Hydroxyl radical-scavenging activity, ESR (Fenton reaction)
# Procedure: Stock solutions, prepared by dissolving NK-4, NK-19, NK-53, NK-100, and NK-557 in DMSO, were respectively diluted with refined water to give concentrations of 3-folds higher than those in Table 14 and used as test sample solutions. As a positive control, a neuroprotectant, “edaravone”, commercialized as “RADICUT®” containing 3-methyl-1-phenyl-2-pyrazoline-5-one as an effective ingredient by Mitsubishi Tanabe Pharma Corporation, Osaka, Japan, was diluted with refined water to give a concentration of 3-folds higher than that in Table 14 for use. To 50 μl of refined water, 50 μl of 89 mM DMPO ([…]) commercialized by Dojindo Laboratories, Kumamoto, Japan, 50 μl of the test sample solution, and 50 μl of an aqueous solution containing 1 mM hydrogen peroxide, 1 mM FeSO4, and 1 mM DTPA, commercialized by Wako Pure Chemical Industries, Osaka, Japan, were added, mixed for 10 seconds using a vortex mixer and allowed to react in an incubator controlled at 37° for 40 seconds. After 30 seconds from completion of the reaction, the resulting reaction mixture was subjected to ESR measurement. A control solution was prepared by the same method as above except for using 50 μl of a diluted edaravone solution as a substitute for the test sample solution, and subjected to ESR measurement.
# The reaction mixture for measuring hydroxyl or peroxyl radicals was poured into a flat quartz cell for ESR, set to “FREE RADICAL MONITOR JES-FR30”, an ESR apparatus commercialized by JOEL Ltd., Tokyo, Japan, and ESR was measured according to manual manner. The residual ratio of peroxyl radical (%) was determined as a relative value by defining the ESR value, obtained by using 0.1 M phosphate buffer as a substitute of the test sample solution, as 100. The results are in Tables 14 and 15. […] Therefore, the IC50 of edaravone was determined by another test using its higher concentration, and the result is also shown in Table 14. The conditions of the ESR measurement were set as follows: […]
# [6] = test system: PC12-HS cells; parameters: suppression of cytotoxicity by 6-hydroxy dopa (in words): dose or concentration left out as unconfirmed
# Procedure: 6-Hydroxy dopa was used as a cytotoxic agent. Similarly as in Experiment 1, PC12-HS cells, which had been cultured in D-MEM medium supplemented with 10 v/v % FBS, were inoculated to 96-well microplates by 2×10^4/100 μl/well. […] Thereafter, the cells were fixed with 10% glutaraldehyde and the absorbance at 650 nm was measured by conventional dye-uptake method using methylene blue.
# [7] = 100 μl/well of 100 ng/ml test solution, 3 days, control = 100
# [8] = Experiment 13, cerebral-infarction-model rat, administered through caudal vein
structure (smiles),measurement,setting,value
CCCCCCN1C(C)=CS\C1=C/C=C(\C=C\c1scc(C)[n+]1CCCCCC)c1scc(C)[n+]1CCCCCC.[I-].[I-] [NK-392],Percentage (%) of cells with neurite outgrowth,[1],44%
same,Action on neurite outgrowth (%),[1]; compound concentration 80 ng/ml,44 ± 12%
same,Action on neurite outgrowth (%),[1]; compound concentration 400 ng/ml,48 ± 2%
same,Action on neurite outgrowth (%),[1]; compound concentration 2000 ng/ml,76 ± 8%
same,Action on neurite outgrowth (%),[1]; compound concentration 10000 ng/ml,81 ± 10%
same,Action of enhancing cell growth (%),[2]; [7],560%
same,Action of enhancing cell growth (%),[2]; compound concentration 25 ng/ml,349 ± 63%
same,Action of enhancing cell growth (%),[2]; compound concentration 50 ng/ml,601 ± 93%
same,Action of enhancing cell growth (%),[2]; compound concentration 100 ng/ml,607 ± 71%
same,Action of enhancing cell growth (%),[2]; compound concentration 200 ng/ml,460 ± 41%
CCCN1C(C)=CS\C1=C/C=C(\C=C\c1scc(C)[n+]1CCC)c1scc(C)[n+]1CCC.[I-].[I-] [NK-237],Percentage (%) of cells with neurite outgrowth,[1],16%
same,Action of enhancing cell growth (%),[2]; [7],212%
"CC1=NN(c2ccccc2)C(=O)C1 [Edaravone, 3-methyl-1-phenyl-2-pyrazoline-5-one, reference compound]",increment of the volume of cerebral infarction region (in words),[3]; [8],not significantly suppressed
same,Volume of cerebral infarction region (mm^3),[3]; dose 0.3 mg per kg body weight,179 ± 27 mm^3
same,Volume of cerebral infarction region (mm^3),[3]; dose 1 mg per kg body weight,152 ± 28 mm^3
same,Volume of cerebral infarction region (mm^3),[3]; dose 3 mg per kg body weight,183 ± 16 mm^3
same,behavioral score (in words),[4]; [8],significantly improved
same,Behavioral score,[4]; dose 0.3 mg per kg body weight,4.7 ± 0.4
same,Behavioral score,[4]; dose 1 mg per kg body weight,3.7 ± 0.5
same,Behavioral score,[4]; dose 3 mg per kg body weight,4.8 ± 0.2
same,IC50 (μg/ml) of hydroxyl radical-scavenging activity,[5],148.0 µg/mL
same,Residual ratio of hydroxyl radical (%),[5]; concentration of compound 2.5 μg/ml,100%
same,Residual ratio of hydroxyl radical (%),[5]; concentration of compound 3.13 μg/ml,100%
same,Residual ratio of hydroxyl radical (%),[5]; concentration of compound 6.25 μg/ml,100%
same,Residual ratio of hydroxyl radical (%),[5]; concentration of compound 12.5 μg/ml,100%
same,suppression of cytotoxicity by 6-hydroxy dopa (in words),[6],can not suppress the cytotoxicity

# Reference: US20120035187A1 (priority 2009, published 2012)
